Values joined by “and” are separate entries in the source; they are usually repeats but may differ in a detail not shown here. Equal values may be shown once.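 Cultured in 96-well plates, cells were exposed to test compound for 48 hours across five concentrations. GI50 marks 50% less growth. The concentration for full growth arrest is given as TGI.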
How the values were obtained:
Assay in all cases: NCI tumour cell line growth inhibition, 48 h
SF-539 CNS = system: SF-539 CNS
SK-MEL-28 melanoma = system: SK-MEL-28 melanoma
SF-295 CNS = system: SF-295 CNS
TK-10 renal = system: TK-10 renal
U251 CNS = system: U251 CNS
UACC-62 melanoma = system: UACC-62 melanoma
SK-MEL-2 melanoma = system: SK-MEL-2 melanoma
MCF7 breast = system: MCF7 breast
MOLT-4 leukemia = system: MOLT-4 leukemia
HCT-15 colon = system: HCT-15 colon

SMILES	GI50 (SF-539 CNS) [µM]	TGI (SF-539 CNS) [µM]	GI50 (SK-MEL-28 melanoma) [µM]	TGI (SK-MEL-28 melanoma) [µM]	GI50 (SF-295 CNS) [µM]	TGI (SF-295 CNS) [µM]	GI50 (TK-10 renal) [µM]	TGI (TK-10 renal) [µM]	GI50 (U251 CNS) [µM]	TGI (U251 CNS) [µM]	GI50 (UACC-62 melanoma) [µM]	TGI (UACC-62 melanoma) [µM]	GI50 (SK-MEL-2 melanoma) [µM]	TGI (SK-MEL-2 melanoma) [µM]	GI50 (MCF7 breast) [µM]	TGI (MCF7 breast) [µM]	GI50 (MOLT-4 leukemia) [µM]	TGI (MOLT-4 leukemia)	GI50 (HCT-15 colon) [µM]	TGI (HCT-15 colon) [µM]
CCc1ccc(Nc2cc(C)c3ccc(O)cc3n2)cc1	5.74	19.1	11.7	24.7	5.06	20.3	14.1	27.8	6.84	22.5	8.57	22.1	9.97	23.6	4.75	22.4	3.6	19 µM	2.95	12.8
CCOC(=O)/C(=C\c1cccc(C)c1)C(C)=O	–	40.3	–	30.5	–	55.8	–	44.3	–	26.2	–	31.7	–	26.1	–	35.4	–	66.6 µM	–	38.9
CCC(c1ccccc1)c1noc(CCN(CC)CC)n1 (stereo not drawn)	23.2	71.1	26.7	> 73.2	> 56.9	> 100	42.8	> 100	29.5	> 100	43.2	> 100	24.7	67.7	8.98	76.2	40.9	> 100 µM	19.2	> 62.3
O=NN(CCCl)C(=O)NC1CCC(CC(=O)O)CC1 (stereo not drawn)	–	> 100	–	> 100	–	> 100	–	> 100	–	> 100	–	> 100	–	> 100	–	> 100	–	> 100 µM and 63.2 µM	–	> 100
CC(C)[C@@H]1CC[C@]2(CO2)[C@@H]2C(=O)OCC(C(=O)O)=C[C@H]21	0.353	> 34.6	0.207	0.424	1	> 100	0.686	> 93.5	0.343	> 100	0.221	0.578	0.208	0.407	0.824	> 100	0.62	3.96 µM	0.378	> 100
CCCCCCCCCCCC[C@@H](O)[C@H]1CC[C@H]([C@H](O)CC[C@H](O)[C@@H]2CC[C@@H](CCCCCCCC3=C[C@H](C)OC3=O)O2)O1	–	> 50	3.37	> 50	2.4	> 50	1.24	> 50	8.63	> 50	> 50	> 50	–	> 50	1.85	> 50	2.55	> 50 µM	5.07	> 50
COc1ccccc1Oc1nccc(-c2c(-c3ccc(F)cc3)ncn2C2CCNCC2)n1	> 25	> 25	> 24.1	> 25	17.5	> 25	> 25	> 25	> 24	> 25	> 25	> 25	> 25	> 25	16	> 25	> 16.3	> 25 µM	> 25	> 25
Cc1cnc(C(=O)NNc2nc3sc4c(c3c(=O)[nH]2)C(C)CCC4)cn1 (stereo not drawn)	0.918	10.2	1.37	29.6	1.08	14.6	1.99	39.7	0.603	> 100	0.528	6.93	6.64	37.4	1.9	> 100	0.676	13.4 µM	0.411	23.6
C=C(CN1CCc2[nH]c3ccc(F)cc3c2C1)c1ccc(C(=O)Nc2ccccc2N)cc1	0.38	2.32	3.54	26.2	3.31	11.8	2.58	16.2	2.91	11.2	2.26	5.9	1.07	8.14	2.45	69.2	1.92	6.56 µM	3.17	12.6
CC(=O)Oc1ccc(C2=Cc3ccc(OC(C)=O)cc3OC2C)cc1 (stereo not drawn)	2.51	9.07	10.3	43.4	2	4.25	20	> 100	4.91	79.9	4.61	25.1	23.4	78.5	6.28	52.3	1.97	19.4 µM	5.07	26.1
C(=Nc1nc(SCc2ccccc2)nc2[nH]ncc12)c1cccs1	24.8	> 100	31.3	> 100	> 100	> 100	44.3	> 100	43.6	> 100	25.4	61.8	77.4	> 100	40.4	> 100	23.6	85.9 µM	85.4	> 100
Cn1c(=O)c2nc3sc4c(n3c2n(C)c1=O)C(=O)c1ccccc1C4=O	–	> 74.2	–	> 100	–	> 100	–	> 100	–	> 57.5	–	> 100	–	> 75.7	–	> 62	–	38.3 µM	–	> 86.5
